Assay results published in ChEMBL document CHEMBL3507680, “University of Dundee, Gates Library screen for HepG2 cell viability”.

Experiment: Human HepG2 cell viability assay in 384 well format
Type: toxicity, cell-based
Set-up: dose 125 nL, time 70.5 hour; concentration not given beside the values
Details: HepG2 cells, read-out: Inhibition

Compound	cytotoxicity at 70.5 h [%]
Cc1cc(C(F)(F)F)nc(N2CCN3CCCC3C2)n1 (centres undefined)	-10.5
Cc1ccc(-c2cc(C(F)(F)F)nc(N3CCOCC3)n2)s1	-11.3
NC(=O)c1nc(-c2ccc(Cl)cc2Cl)oc1N	-3.66
CCn1cc(CN(C)S(=O)(=O)c2cnn(C)c2)cn1	-6.45
CC(Cn1cccn1)NC(=O)c1cc(C2CC2)nc2c1cnn2C (centres undefined)	-9.86
CC(CNC(=O)c1cc(C2CC2)nc2c1cnn2C)Cn1cccn1 (centres undefined)	-6.63
CCn1ncc2c(C(F)(F)F)cc(-c3cnn(C)c3)nc21	-11.4
Nc1nnc(CCCn2nnc(-c3ccccc3F)n2)s1	-15.5
Clc1ccc2[nH]c3c(c2c1)CCCC3c1nn[nH]n1 (centres undefined)	-6.09
COc1ccc([C@@H]2NC(=O)N[C@H]3OCCC[C@H]32)cc1	-4.38
COc1c(C2SCC(=O)Nc3[nH]ncc32)cc2c(c1OC)OCO2 (centres undefined)	-13.6
O=C1CC(c2ccc(F)cc2)c2snc(C(=O)O)c2N1 (centres undefined)	-10.3
COc1ccc(C2=NOC(C#N)C2)cc1 (centres undefined)	8.47
N#Cc1ccc(C2CC(=O)Nc3c(C(=O)O)nsc32)cc1 (centres undefined)	-5.94
CCS(=O)(=O)N1CCC2(CN(c3cccc(C)n3)C2)C1	-4.08
CC(C)C(=O)N1CCC2(CCN2CC2CC2)C1 (centres undefined)	-4.62
CC(C)C(=O)N1CCC2(CN(CC3CCCC3)C2)C1	-5.09
Cc1ccc(CN2C[C@@H]3CN(c4ncc(F)cn4)C[C@@H]3C2)cc1	-1.01
c1ccc(CN2Cc3[nH]nc(COCC4CC4)c3C2)nc1	-4.63
CN1CCc2c(c(COc3cncnc3)nn2CC2CC2)C1	5.89
CCc1cnc(N2CCC3(CC(=O)N(Cc4csc(C)n4)C3)C2)nc1 (centres undefined)	-12
CCCC(=O)N1CCOC2(COCCN(CC(=O)NC)C2)C1 (centres undefined)	-10.5
CC(C)CN1CC[C@H]2OCC[C@@H](C(=O)N3CCCO3)[C@@H]2C1	-18.2
CNC(=O)c1cc2c(nc1NCC1CC1)CCN(S(C)(=O)=O)CC2	-23.3
Cn1cc(CN2CCn3cc(Cn4cccn4)nc3C2)cn1	44.1
O=C([C@@H]1CCO[C@@H]2CCN(CC3CCOCC3)C[C@H]21)N1CCCO1	46.7
Cc1ccc(CN2CC[C@H]3OCC[C@@H](C(=O)N4CCCCO4)[C@@H]3C2)o1	47.1

Compound	cytotoxicity at 70.5 h [%]
COCC(=O)N1CCCC2(CCN(Cc3cccc(C)n3)C2=O)C1 (centres undefined)	-0.526
O=C1CCCN1CC1CN(CC2CCOCC2)Cc2nccn2C1 (centres undefined)	-2.55
c1cnc(N2CCOCC3(CN(Cc4nccs4)CCO3)C2)nc1 (centres undefined)	-2.26
O=C(c1ccc(F)cc1)N1C[C@H]2CCC[C@@]2(COCc2ccncc2)C1	-0.425
Cc1ccsc1C(=O)N1Cc2ncn(C)c2C(COCC2CC2)C1 (centres undefined)	5.9
O=C(Cc1ccccn1)NCC1OCCc2cn(CC3CC3)nc21 (centres undefined)	11.2
O=C(NC1CC1)[C@H]1C[C@H]2OCC[C@H]2N(Cc2cccc3ccccc23)C1	-0.842
O=C(c1ccco1)N1C[C@@H]2[C@@H](C1)OCC(=O)N2Cc1cccnc1	7.81
O=S(=O)(C1CC1)N1C[C@H](Oc2ccccn2)[C@H]2OCCC[C@H]21	-0.632
CN(C)S(=O)(=O)N1C[C@@H]2CN(Cc3ccoc3)CCO[C@@H]2C1	-4.48
Cc1noc([C@@H]2C[C@H]3CN(CC4CCOCC4)C[C@H]3O2)n1	14.1
O=S(=O)(C1CC1)N1CCC[C@]2(C[C@@H](Oc3ccccn3)CO2)C1	14.1
CCn1cc2c(n1)C(COC)CN(c1ccc(C)nn1)C2 (centres undefined)	-7.13
c1cnc(N2CCC3(CC2)CC(NCC2CC2)c2ccccc23)nc1 (centres undefined)	11.4
Fc1cnc(N2C[C@H]3CN(Cc4cccc(F)c4)C[C@H]3C2)nc1	-13.6
c1ccc(CNCC2Cn3nnc(-c4ccncc4)c3CO2)nc1 (centres undefined)	-4.04
c1csc(CN2Cc3[nH]nc(COCC4CC4)c3C2)c1	-8.6
Cc1nc(CN2CC[C@H]3[C@H]2CCN3c2nncs2)cs1	-3.7
CC(C)N1CCOCC2(CN(Cc3cccs3)CCO2)C1 (centres undefined)	-0.496
c1cn2c(n1)CN(C1CCOCC1)CC(CN1CCCC1)C2 (centres undefined)	-2.92
Cn1cc(CN2CCO[C@@H]3CN(C4CCCC4)C[C@@H]3C2)cn1	1.26
CNC(=O)[C@H]1C[C@@H]2CN(Cc3cccnc3OC)C[C@@H]2N1C(C)C	-7.89
CN(C)CCN1CCCC12CCCN(Cc1ccco1)C2 (centres undefined)	7.41
COc1ncccc1CN1CC[C@]2(C[C@@H](OCc3ccccn3)CO2)C1	-13.8
c1cc(CN2CCOCC3(C2)CN(Cc2nccs2)CCO3)ccn1 (centres undefined)	17.5
CN(C)CCN1CCOCC2(C1)CN(Cc1nccs1)CCO2 (centres undefined)	16.3
CCOCC1CN(Cc2cccnc2OC)Cc2cnn(C)c21 (centres undefined)	2.89
